Measurements as given in US8962058B2, “High-potency sweetener composition with antioxidant and compositions sweetened therewith” (The Coca-Cola Company, priority 2005, dated 2015).

What was measured:
[1] = test system: panel of experts in the sensory evaluation of foods and beverages; test: Sensory evaluation of sweetness linger by expert panel; assay type: in vivo; set-up: key: 0=no sweetness linger; 1=very slight sweetness linger; 2=slight sweetness linger; 3=moderate sweetness linger; 4=moderately high sweetness linger; 5=high sweetness linger; settings: for Sweetness linger rating: scale 0-5; for Sweetness Linger rating as defined for the protocol's controls: scale anchors: sucrose, 500 ppm REBA control sample
Description: In a particular embodiment, a panel of assessors is used to measure the reduction of sweetness linger. Briefly described, a panel of assessors (generally 8 to 12 individuals) is trained to evaluate sweetness perception and measure sweetness at several time points from when the sample is initially taken into the mouth until 3 minutes after it has been expectorated. […] A decrease in score for a time point measured after the sample has cleared the mouth indicates there has been a reduction in sweetness perception.
The panel of assessors may be trained using procedures well known to those of ordinary skill in the art. In a particular embodiment, the panel of assessors may be trained using the Spectrum™ Descriptive Analysis Method (Meilgaard et al, Sensory Evaluation Techniques, 3rd edition, Chapter 11). Desirably, the focus of training should be the recognition of and the measure of the basic tastes; specifically, sweet. In order to ensure accuracy and reproducibility of results, each assessor should repeat the measure of the reduction of sweetness linger about three to about five times per sample, taking at least a five minute break between each repetition and/or sample and rinsing well with water to clear the mouth.
Generally, the method of measuring sweetness comprises taking a 10 mL sample into the mouth, holding the sample in the mouth for 5 seconds and gently swirling the sample in the mouth, rating the sweetness intensity perceived at 5 seconds, expectorating the sample (without swallowing following expectorating the sample), rinsing with one mouthful of water (e.g., vigorously moving water in mouth as if with mouth wash) and expectorating the rinse water, rating the sweetness intensity perceived immediately upon expectorating the rinse water, waiting 45 seconds and, while waiting those 45 seconds, identifying the time of maximum perceived sweetness intensity and rating the sweetness intensity at that time (moving the mouth normally and swallowing as needed), rating the sweetness intensity after another 10 seconds, rating the sweetness intensity after another 60 seconds (cumulative 120 seconds after rinse), and rating the sweetness intensity after still another 60 seconds (cumulative 180 seconds after rinse). Between samples take a 5 minute break, rinsing well with water to clear the mouth.
Sensory evaluation of the samples prepared in Example Set G was carried out under the following protocol, similar to that described hereinabove. In this test protocol, none of the samples were swallowed. […] Immediately upon sensing maximal sweetness, the sample was expectorated, the mouth was rinsed with water and the rate of sweetness decay (“Sweetness Linger”) was measured, where attention was focused on the sweetness 3-4 min after the water rinse. […]

[2] = Sweetness level as sucrose equivalent

Row | Molecule | Sweetness linger rating ([1]; Example Set G: citric acid/potassium citrate composition equivalent to diet lemon-lime beverage (citrate buffer), sweetness 3-4 min after water rinse) | Sweetness linger rating ([1]; Example Set H: carbon-treated water, phosphoric acid (75%) to pH 2.4-2.5) | Sweetness Linger rating as defined for the protocol's controls [1] | sucrose equivalence ([2]; 180 ppm rebaudioside A in 1:1 diluted commercial beverage) | sucrose equivalence ([2]; 400 ppm REBA in citric acid/potassium citrate composition)
1 | rebaudioside A | 5 | 5 | 5 | 5 % sucrose | 8 g sucrose
2 | OC[C@H]1O[C@@](CO)(O[C@H]2O[C@H](CO)[C@@H](O)[C@H](O)[C@H]2O)[C@@H](O)[C@@H]1O [sugar, sucrose] |  |  | 0 |  | 
